Experimental data reported in ChEMBL document CHEMBL1151859, “Structure-activity relationship studies of a novel series of anthrax lethal factor inhibitors” (Bioorg Med Chem, 2009).

Molecular target: T1, Lethal factor (Bacillus anthracis, UniProt P15917)
T1 sequence (P15917 whole entry): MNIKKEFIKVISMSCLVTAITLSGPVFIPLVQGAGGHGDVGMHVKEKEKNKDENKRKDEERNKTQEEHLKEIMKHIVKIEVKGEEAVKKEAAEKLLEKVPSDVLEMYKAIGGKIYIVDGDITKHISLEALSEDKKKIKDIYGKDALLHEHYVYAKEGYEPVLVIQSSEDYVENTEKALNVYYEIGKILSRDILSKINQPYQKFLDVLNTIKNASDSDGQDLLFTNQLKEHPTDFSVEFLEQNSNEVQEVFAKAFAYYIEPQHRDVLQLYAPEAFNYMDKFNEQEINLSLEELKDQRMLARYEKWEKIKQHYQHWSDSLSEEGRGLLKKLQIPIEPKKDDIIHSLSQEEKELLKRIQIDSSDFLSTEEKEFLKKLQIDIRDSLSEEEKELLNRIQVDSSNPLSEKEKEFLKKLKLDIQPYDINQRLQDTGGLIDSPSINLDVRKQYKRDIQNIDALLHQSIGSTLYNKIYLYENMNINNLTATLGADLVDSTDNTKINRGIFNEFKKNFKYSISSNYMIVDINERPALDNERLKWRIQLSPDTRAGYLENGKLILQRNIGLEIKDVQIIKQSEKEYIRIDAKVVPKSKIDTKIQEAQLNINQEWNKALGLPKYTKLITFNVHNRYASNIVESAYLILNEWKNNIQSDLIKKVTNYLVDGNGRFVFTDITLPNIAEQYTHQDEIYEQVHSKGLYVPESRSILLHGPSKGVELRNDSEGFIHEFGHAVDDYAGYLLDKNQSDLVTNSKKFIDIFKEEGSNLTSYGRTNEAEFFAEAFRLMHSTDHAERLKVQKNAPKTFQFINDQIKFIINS
Assay: Inhibition of Bacillus anthracis lethal factor assessed as cleavage of MAPKK by fluorescence peptide cleavage assay

Row | Compound | IC50 | Ki
1 | O=S(=O)(Nc1ccccc1-c1nc2ccccc2s1)c1ccc(-c2ccc(Cl)cc2)cc1 | 100 µM | –
2 | COc1ccc(-c2ccc(S(=O)(=O)Nc3scc(C)c3-c3nc4ccccc4s3)cc2)cc1 | 21 µM | –
3 | Cc1ccc(-c2ccc(S(=O)(=O)Nc3sccc3-c3nc4ccccc4s3)cc2)cc1 | 28 µM | –
4 | Cc1csc(NS(=O)(=O)c2ccc(Cl)cc2)c1-c1nc2ccccc2s1 | 15 µM | 7.8 µM
5 | COc1ccc(-c2ccc(S(=O)(=O)Nc3sccc3-c3nc4ccccc4s3)cc2)cc1OC | 9 µM | –
6 | O=S(=O)(Nc1sccc1-c1nc2ccccc2s1)c1ccc2c(c1)CCO2 | 22 µM | –
7 | CC(C)(C)c1ccc(S(=O)(=O)Nc2sccc2-c2nc3ccccc3s2)cc1 | 13 µM | –
8 | Cc1csc(NS(=O)(=O)c2ccc(F)c(Cl)c2)c1-c1nc2ccccc2s1 | > 100 µM | –
9 | Cc1csc(NS(=O)(=O)c2ccc(Cl)c(Cl)c2)c1-c1nc2ccccc2s1 | > 100 µM | –
10 | Cc1cc(C)n(-c2ccc(S(=O)(=O)Nc3sccc3-c3nc4ccccc4s3)cc2)n1 | 11 µM | –
11 | Cc1csc(NS(=O)(=O)c2cccc(C(F)(F)F)c2)c1-c1nc2ccccc2s1 | 9.4 µM | –
12 | Cc1csc(NS(=O)(=O)c2ccc(Cl)cc2F)c1-c1nc2ccccc2s1 | 19 µM | –
13 | O=S(=O)(Nc1sccc1-c1nc2ccccc2s1)c1ccc(-c2ccc(Cl)c(Cl)c2)cc1 | 7.2 µM | –
14 | O=S(=O)(Nc1sccc1-c1nc2ccccc2s1)c1ccc(Br)cc1 | 8 µM | –
15 | O=S(=O)(Nc1sccc1-c1nc2ccccc2s1)c1cccc(-c2ccccc2)c1 | 13 µM | –
16 | Cc1ccc(S(=O)(=O)Nc2sccc2-c2nc3ccccc3s2)cc1 | 13 µM | –
17 | O=S(=O)(NCCc1nc2ccccc2s1)c1ccc(-c2ccc(Cl)cc2)cc1 | > 50 µM | –
18 | O=S(=O)(Nc1sccc1-c1nc2ccccc2s1)c1ccc(-c2cncs2)cc1 | 12 µM | –
19 | O=S(=O)(Nc1sccc1-c1nc2ccccc2s1)c1ccc(F)cc1 | 16 µM | –
20 | COc1ccc(-c2ccc(S(=O)(=O)Nc3nc4ccccc4s3)cc2)cc1 | > 50 µM | –
21 | O=S(=O)(Nc1sccc1-c1nc2ccccc2s1)c1cccc(Cl)c1F | 30 µM | –
22 | COc1cccc(S(=O)(=O)Nc2scc(C)c2-c2nc3ccccc3s2)c1 | 11 µM | –
23 | CN1CCOc2cc(S(=O)(=O)Nc3sccc3-c3nc4ccccc4s3)cnc21 | 27 µM | –

Row | Compound | IC50 | Ki
24 | Cc1csc(NS(=O)(=O)c2cccc(OC(F)(F)F)c2)c1-c1nc2ccccc2s1 | 11 µM | –
25 | O=S(=O)(Nc1sccc1-c1nc2ccccc2s1)c1cccc(-c2ccc(Cl)cc2)c1 | 18 µM | –
26 | O=S(=O)(Nc1sccc1-c1nc2ccccc2s1)c1ccc(C(F)(F)F)cc1 | 11 µM | –
27 | Nc1sccc1-c1nc2ccccc2s1 | > 100 µM | –
28 | COc1ccc(-c2cccc(S(=O)(=O)Nc3scc(C)c3-c3nc4ccccc4s3)c2)cc1 | 16 µM | –
29 | Cc1csc(NS(=O)(=O)c2cccc(-c3ccc(Cl)cc3)c2)c1-c1nc2ccccc2s1 | 22 µM | –
30 | CS(=O)(=O)CS(=O)(=O)Nc1sccc1-c1nc2ccccc2s1 | 19 µM | –
31 | Cc1c(S(=O)(=O)Nc2sccc2-c2nc3ccccc3s2)sc2ccccc12 | 10 µM | –
32 | Cc1ccc(S(=O)(=O)Nc2scc(C)c2-c2nc3ccccc3s2)cc1 | > 100 µM | –
33 | Cc1csc(NS(=O)(=O)c2ccccc2C(F)(F)F)c1-c1nc2ccccc2s1 | > 100 µM | –
34 | O=S(=O)(Nc1sccc1-c1nc2ccccc2s1)c1ccc(-c2ccc(C(F)(F)F)cc2)cc1 | 8 µM | –
35 | Cc1csc(NS(=O)(=O)c2cc(Cl)c(Cl)cc2Cl)c1-c1nc2ccccc2s1 | 15 µM | –
36 | Cc1csc(NS(=O)(=O)c2ccc(C(C)(C)C)cc2)c1-c1nc2ccccc2s1 | > 100 µM | –
37 | O=S(=O)(Nc1sccc1-c1nc2ccccc2s1)c1ccc(-c2cnco2)cc1 | 13 µM | –
38 | O=S(=O)(Nc1sccc1-c1nc2ccccc2s1)c1ccc(Cl)c(C(F)(F)F)c1 | 10 µM | –
39 | Cc1nccc(-c2cccc(S(=O)(=O)Nc3sccc3-c3nc4ccccc4s3)c2)n1 | 12 µM | –
40 | O=S(=O)(Nc1sccc1-c1nc2ccccc2s1)c1ccco1 | > 50 µM | –
41 | O=S(=O)(Nc1sccc1-c1nc2ccccc2s1)c1ccc(-n2cccn2)cc1 | 8 µM | –
42 | Cc1csc(N)c1-c1nc2ccccc2s1 | > 100 µM | –
43 | O=S(=O)(Nc1sccc1-c1nc2ccccc2s1)c1ccc(Oc2ccccc2)nc1 | 43 µM | –
44 | Cc1ccc(S(=O)(=O)Nc2sccc2-c2nc3ccccc3s2)cc1[N+](=O)[O-] | 10 µM | –
45 | Cc1ccc(S(=O)(=O)Nc2scc(C)c2-c2nc3ccccc3s2)cc1Cl | 8.9 µM | –
46 | COc1ccc(-c2ccc(S(=O)(=O)NCCc3nc4ccccc4s3)cc2)cc1 | > 50 µM | –

Row | Compound | IC50 | Ki
47 | Cc1csc(NS(=O)(=O)c2cccc(Cl)c2)c1-c1nc2ccccc2s1 | > 100 µM | –
48 | COc1ccc(-c2cccc(S(=O)(=O)Nc3sccc3-c3nc4ccccc4s3)c2)cc1 | 14 µM | –
49 | O=S(=O)(Nc1sccc1-c1nc2ccccc2s1)c1ccc(-c2ccc(OC(F)(F)F)cc2)cc1 | 3.9 µM | –
50 | COc1ccc(S(=O)(=O)Nc2sccc2-c2nc3ccccc3s2)cc1OC | 19 µM | –
51 | O=C(NCc1ccc(S(=O)(=O)Nc2sccc2-c2nc3ccccc3s2)s1)c1ccc(Cl)cc1 | 14 µM | –
52 | O=S(=O)(Nc1sccc1-c1nc2ccccc2s1)c1ccc(Cl)c(Cl)c1 | 9 µM | –
53 | CC(=O)Nc1ccc(S(=O)(=O)Nc2scc(C)c2-c2nc3ccccc3s2)cc1 | 14 µM | –
54 | O=S(=O)(Nc1sccc1-c1nc2ccccc2s1)c1cccc(C(F)(F)F)c1 | 16 µM | –
55 | Cc1cc(S(=O)(=O)Nc2sccc2-c2nc3ccccc3s2)ccc1F | 12 µM | –
56 | O=S(=O)(Nc1sccc1-c1nc2ccccc2s1)c1ccc(-c2ccno2)s1 | 19 µM | –
57 | Cc1csc(NS(=O)(=O)c2ccccc2)c1-c1nc2ccccc2s1 | > 100 µM | –
58 | O=S(=O)(Nc1sccc1-c1nc2ccccc2s1)c1ccc(Br)c(Cl)c1 | 4.5 µM | –
59 | COc1ccccc1Oc1ccc(S(=O)(=O)Nc2sccc2-c2nc3ccccc3s2)cc1 | > 50 µM | –
60 | O=S(=O)(Nc1sccc1-c1nc2ccccc2s1)c1ccc(OC(F)(F)F)cc1 | 9.6 µM | –
61 | Cc1ccc(S(=O)(=O)Nc2nc3ccccc3s2)cc1Cl | 28 µM | –
62 | Cc1ccc(S(=O)(=O)Nc2sccc2-c2nc3ccccc3s2)cc1F | 11 µM | –
63 | COc1ccc(S(=O)(=O)Nc2scc(C)c2-c2nc3ccccc3s2)cc1 | 46 µM | –
64 | Cc1csc(NS(=O)(=O)c2cccc(Cl)c2F)c1-c1nc2ccccc2s1 | 100 µM | –
65 | Cc1csc(NS(=O)(=O)c2ccc(-c3ccc(Cl)cc3)cc2)c1-c1nc2ccccc2s1 | 12 µM | –
66 | CN1CCOc2cc(S(=O)(=O)Nc3sccc3-c3nc4ccccc4s3)ccc21 | 23 µM | –
67 | Cc1csc(NS(=O)(=O)c2ccc(Cl)c(C(F)(F)F)c2)c1-c1nc2ccccc2s1 | 11 µM | –
68 | O=S(=O)(Nc1sccc1-c1nc2ccccc2s1)c1ccc(Oc2ccccc2Cl)cc1 | 9 µM | –
69 | Cc1nnc(-c2cccc(S(=O)(=O)Nc3sccc3-c3nc4ccccc4s3)c2)o1 | 25 µM | –

Row | Compound | IC50 | Ki
70 | Cc1ccc(S(=O)(=O)Nc2scc(C)c2-c2nc3ccccc3s2)cc1[N+](=O)[O-] | 48 µM | –
71 | O=S(=O)(Nc1nc2ccccc2s1)c1ccc(-c2ccc(Cl)cc2)cc1 | > 50 µM | –
72 | Cc1csc(N(S(=O)(=O)c2ccc(OC(F)(F)F)cc2)S(=O)(=O)c2ccc(OC(F)(F)F)cc2)c1-c1nc2ccccc2s1 | > 100 µM | –
73 | O=S(=O)(Nc1sccc1-c1nc2ccccc2s1)c1ccc(Cl)cc1F | 18 µM | –
74 | Cc1c(Cl)cccc1S(=O)(=O)Nc1sccc1-c1nc2ccccc2s1 | > 50 µM | –
75 | O=S(=O)(Nc1sccc1-c1nc2ccccc2s1)c1ccc(F)c(Cl)c1 | 13 µM | –
76 | Cc1csc(NS(=O)(=O)c2ccc(OC(F)(F)F)cc2)c1-c1nc2ccccc2s1 | 18 µM | –
77 | Cc1csc(NS(=O)(=O)c2cccc(-c3ccccc3)c2)c1-c1nc2ccccc2s1 | 19 µM | –
78 | Cc1csc(NS(=O)(=O)c2cccc(Cl)c2C)c1-c1nc2ccccc2s1 | 100 µM | –
79 | O=S(=O)(Nc1sccc1-c1nc2ccccc2s1)c1ccc2ccccc2c1 | 8 µM | –
80 | O=S(=O)(Nc1sccc1-c1nc2ccccc2s1)c1ccccc1 | 39 µM | –
81 | O=S(=O)(Nc1sccc1-c1nc2ccccc2s1)c1ccc2cc(Cl)ccc2c1 | 11 µM | –
82 | CC(=O)Nc1ccc(S(=O)(=O)Nc2sccc2-c2nc3ccccc3s2)cc1 | 24 µM | –
83 | O=S(=O)(Nc1sccc1-c1nc2ccccc2s1)c1ccc(S(=O)(=O)N2CCOCC2)cc1 | 17 µM | –
84 | Cc1csc(NS(=O)(=O)c2ccc(-c3ccccc3)cc2)c1-c1nc2ccccc2s1 | 17 µM | –
85 | O=S(=O)(Nc1oncc1-c1nc2ccccc2s1)c1ccc(-c2ccc(Cl)cc2)cc1 | > 100 µM | –
86 | O=S(=O)(Nc1sccc1-c1nc2ccccc2s1)c1ccc2c(c1)OCCO2 | 27 µM | –
87 | Cc1csc(N(S(=O)(=O)c2cccc(C(F)(F)F)c2)S(=O)(=O)c2cccc(C(F)(F)F)c2)c1-c1nc2ccccc2s1 | > 100 µM | –
88 | Cc1csc(N(S(=O)(=O)c2ccc(F)cc2)S(=O)(=O)c2ccc(F)cc2)c1-c1nc2ccccc2s1 | > 100 µM | –
89 | O=S(=O)(Nc1sccc1-c1nc2ccccc2s1)c1ccc2nonc2c1 | 30 µM | –
90 | O=S(=O)(Nc1sccc1-c1nc2ccccc2s1)c1ccc(Cl)cc1 | 15 µM | –
91 | Cc1c(S(=O)(=O)Nc2sccc2-c2nc3ccccc3s2)cnn1-c1ccccc1 | > 50 µM | –
